≈ marks a conversion by molar mass, not a printed value.
Legend:
[1] = test system: Mycobacterium tuberculosis; experiment: Antitubercular activity against Mycobacterium tuberculosis H37Rv ATCC27294 assessed as complete cessation of growth; type: functional; conditions: H37Rv ATCC 27294
[2] = Cytotoxicity against mouse macrophage cell line J774.1 (ATCC TIB-67) for 3 days by Alamar Blue; type: cell-based; conditions: 72 h

Compound | MIC [1] [µM] | IC50 [2] [µM]
O=C(Nc1ccccc1)c1cc(Cl)ccc1O | 13 (≈ 3.22 µg/mL) | 22
Cc1cc(NS(=O)(=O)c2ccc(NC(=O)c3cc(Cl)ccc3O)cc2)no1 | > 50 | > 60
O=C(Nc1ccc(C(F)(F)F)cc1)c1cc(Cl)ccc1O | 1.6 (≈ 0.505 µg/mL) | 2.8
Cc1cc(C)cc(NC(=O)c2cc(Cl)ccc2O)c1 | ≥ 50 | 21
O=C(Nc1cccc(Br)c1)c1cc(Cl)ccc1O | 6.3 (≈ 2.06 µg/mL) | 5.7
N#Cc1cccc(NC(=O)c2cc(Cl)ccc2O)c1 | 25 (≈ 6.82 µg/mL) | 10
O=C(Nc1cccc(F)c1)c1cc(Cl)ccc1O | 6.3 (≈ 1.67 µg/mL) | 15
O=C(Nc1cc(Cl)cc(Cl)c1)c1cc(Cl)ccc1O | 1.6 (≈ 0.507 µg/mL) | 3.1
O=C(Nc1cc(F)cc(F)c1)c1cc(Cl)ccc1O | 3.1 (≈ 0.879 µg/mL) | 6.1
O=C(O)c1cccc(NC(=O)c2cc(Cl)ccc2O)c1 | > 50 | > 60
CCOC(=O)c1cccc(NC(=O)c2cc(Cl)ccc2O)c1 | 13 (≈ 4.16 µg/mL) | 17
NC(=O)c1cccc(NC(=O)c2cc(Cl)ccc2O)c1 | > 50 | > 60
O=C(Nc1ccccc1)c1cccc(NC(=O)c2cc(Cl)ccc2O)c1 | > 50 | > 60
O=C(Nc1ccc(F)cc1)c1cc(Cl)ccc1O | 13 (≈ 3.45 µg/mL) | 17
O=C(Nc1ccc(OC(F)(F)F)cc1)c1cc(Cl)ccc1O | 3.1 (≈ 1.03 µg/mL) | 7.3
O=C(Nc1ccc(Oc2ccccc2)cc1)c1cc(Cl)ccc1O | 13 (≈ 4.42 µg/mL) | 43
CC(C)(C)c1ccc(NC(=O)c2cc(Cl)ccc2O)cc1 | 13 (≈ 3.95 µg/mL) | 19
COc1ccc(NC(=O)c2cc(Cl)ccc2O)cc1 | > 50 | > 60
O=C(Nc1ccc(N2CCOCC2)cc1)c1cc(Cl)ccc1O | > 50 | 
NC(=O)c1ccc(NC(=O)c2cc(Cl)ccc2O)cc1 | > 50 | > 60
O=C(Nc1ccccc1)c1ccc(NC(=O)c2cc(Cl)ccc2O)cc1 | > 50 | > 60
O=C(Nc1ccc(S(=O)(=O)Nc2ccccc2)cc1)c1cc(Cl)ccc1O | > 50 | > 60
Cc1c(NC(=O)c2cc(Cl)ccc2O)cccc1C(F)(F)F | 3.1 (≈ 1.02 µg/mL) | 8
O=C(Nc1cccc(C(F)(F)F)c1F)c1cc(Cl)ccc1O | 3.1 (≈ 1.03 µg/mL) | 5.3
O=C(Nc1cccc(F)c1F)c1cc(Cl)ccc1O | 13 (≈ 3.69 µg/mL) | 13
O=C(Nc1ccc(F)cc1C(F)(F)F)c1cc(Cl)ccc1O | 6.3 (≈ 2.1 µg/mL) | 13

Compound | MIC [1] [µM] | IC50 [2] [µM]
O=C(Nc1ccc(Br)cc1C(F)(F)F)c1cc(Cl)ccc1O | 6.3 (≈ 2.49 µg/mL) | 11
O=C(Nc1ccc(C(F)(F)F)cc1Cl)c1cc(Cl)ccc1O | 0.8 (≈ 0.28 µg/mL) | 2.4
O=C(Nc1ccc(F)cc1F)c1cc(Cl)ccc1O | 13 (≈ 3.69 µg/mL) | 8.5
O=C(Nc1cc(C(F)(F)F)ccc1Cl)c1cc(Cl)ccc1O | 1.6 (≈ 0.56 µg/mL) | 3.5
O=C(Nc1cc(C(F)(F)F)ccc1F)c1cc(Cl)ccc1O | 1.6 (≈ 0.534 µg/mL) | 2.6
O=C(Nc1cc(C(F)(F)F)ccc1Br)c1cc(Cl)ccc1O | 0.8 (≈ 0.316 µg/mL) | 2.9
COc1ccc(C(F)(F)F)c(NC(=O)c2cc(Cl)ccc2O)c1 | 6.3 (≈ 2.18 µg/mL) | 4.8
O=C(Nc1cc(F)ccc1Cl)c1cc(Cl)ccc1O | 3.1 (≈ 0.93 µg/mL) | 3.2
O=C(Nc1cc([N+](=O)[O-])ccc1F)c1cc(Cl)ccc1O | 6.3 (≈ 1.96 µg/mL) | 8.5
O=C(Nc1c(Cl)cccc1C(F)(F)F)c1cc(Cl)ccc1O | > 50 | 23
O=C(Nc1c(F)cccc1F)c1cc(Cl)ccc1O | > 50 | > 60
O=C(Nc1ccc(F)c(C(F)(F)F)c1)c1cc(Cl)ccc1O | 1.6 (≈ 0.534 µg/mL) | 5.3
O=C(Nc1ccc(Cl)c(C(F)(F)F)c1)c1cc(Cl)ccc1O | 1.6 (≈ 0.56 µg/mL) | 4.5
O=C(Nc1ccc(Br)c(C(F)(F)F)c1)c1cc(Cl)ccc1O | 3.1 (≈ 1.22 µg/mL) | 4.5
N#Cc1ccc(NC(=O)c2cc(Cl)ccc2O)cc1C(F)(F)F | 6.3 (≈ 2.15 µg/mL) | 5.8
O=C(Nc1ccc(F)c(Cl)c1)c1cc(Cl)ccc1O | 3.1 (≈ 0.93 µg/mL) | 4.4
O=C(Nc1ccc(F)c(F)c1)c1cc(Cl)ccc1O | 3.1 (≈ 0.879 µg/mL) | 7.7
Cc1ccc(NC(=O)c2cc(Cl)ccc2O)cc1I | 6.3 (≈ 2.44 µg/mL) | 6.3
O=C(Nc1cc(Br)ccc1C(F)(F)F)c1cc(Cl)ccc1O | 1.6 (≈ 0.631 µg/mL) | 5.8
COc1cc(NC(=O)c2cc(Cl)ccc2O)cc(C(F)(F)F)c1 | 6.3 (≈ 2.18 µg/mL) | 18
CC(C)(C)c1cc(NC(=O)c2cc(Cl)ccc2O)cc(C(C)(C)C)c1 | 6.3 (≈ 2.27 µg/mL) | 4.1
Cc1c(C(F)(F)F)cc(NC(=O)c2cc(Cl)ccc2O)cc1C(F)(F)F | 0.8 (≈ 0.318 µg/mL) | < 1.9
Cc1c(NC(=O)c2cc(Cl)ccc2O)cc(C(F)(F)F)cc1C(F)(F)F | 3.1 (≈ 1.23 µg/mL) | 3.2
O=C(Nc1cc(F)c(Br)c(F)c1)c1cc(Cl)ccc1O | 1.6 (≈ 0.58 µg/mL) | 4.3
O=C(Nc1cc(F)c(F)c(F)c1)c1cc(Cl)ccc1O | 1.6 (≈ 0.483 µg/mL) | 4.7
O=C(Nc1cc(Cl)c(Cl)c(Cl)c1)c1cc(Cl)ccc1O | 1.6 (≈ 0.562 µg/mL) | 5.4

Compound | MIC [1] [µM] | IC50 [2] [µM]
O=C(Nc1cc(F)c(F)cc1F)c1cc(Cl)ccc1O | 3.1 (≈ 0.935 µg/mL) | 6.2
O=C(Nc1ccc(F)c(F)c1F)c1cc(Cl)ccc1O | 6.3 (≈ 1.9 µg/mL) | 6.7
COc1cc(NC(=O)c2cc(Cl)ccc2O)c(Cl)cc1Cl | 13 (≈ 4.51 µg/mL) | 8
O=C(Nc1cc(O)c(Cl)cc1Cl)c1cc(Cl)ccc1O | > 50 | 32
O=C(Nc1cc(Br)cc(C(F)(F)F)c1)c1cc(F)ccc1O | 3.1 (≈ 1.17 µg/mL) | 4.7
O=C(Nc1cc(C(F)(F)F)ccc1Cl)c1cc(F)ccc1O | 3.1 (≈ 1.03 µg/mL) | 6.1
O=C(Nc1cc(F)cc(F)c1)c1cc(F)ccc1O | 6.3 (≈ 1.68 µg/mL) | 9.6
O=C(Nc1ccc(C(F)(F)F)cc1)c1cc(F)ccc1O | 3.1 (≈ 0.928 µg/mL) | 5.4
O=C(Nc1cc(C(F)(F)F)ccc1F)c1cc(F)ccc1O | 6.3 (≈ 2 µg/mL) | 5.1
O=C(Nc1cccc(C(F)(F)F)c1)c1cc(F)ccc1O | 6.3 (≈ 1.89 µg/mL) | 6.1
O=C(Nc1cc(C(F)(F)F)cc(C(F)(F)F)c1)c1ccccc1 | > 50 | 
Oc1ccc(Cl)cc1CNc1cc(C(F)(F)F)cc(C(F)(F)F)c1 | ≥ 50 | 7.8
O=C(Nc1cc(C(F)(F)F)cc(C(F)(F)F)c1)Nc1cc(Cl)ccc1O | ≥ 50 | 13
O=C(Oc1cc(C(F)(F)F)cc(C(F)(F)F)c1)c1cc(Cl)ccc1O | > 50 | > 60
O=C(Nc1cc(Cl)ccc1O)c1cc(C(F)(F)F)cc(C(F)(F)F)c1 | > 50 | 12
Oc1ccc(Cl)cc1C(=S)Nc1cc(C(F)(F)F)cc(C(F)(F)F)c1 | 1.6 (≈ 0.64 µg/mL) | 
O=S(=O)(Nc1cc(C(F)(F)F)cc(C(F)(F)F)c1)c1cc(Cl)ccc1O | ≥ 50 | 23
O=C(NCc1cc(C(F)(F)F)cc(C(F)(F)F)c1)c1cc(Cl)ccc1O | 6.3 (≈ 2.51 µg/mL) | 27
O=C(Nc1ccccc1C(F)(F)F)c1cc(Cl)ccc1O |  | 19
O=C(Nc1ccc(C(F)(F)F)c(C(F)(F)F)c1)c1cc(Cl)ccc1O | 0.8 (≈ 0.307 µg/mL) | 4.9
O=C(Nc1cccc(C(F)(F)F)c1C(F)(F)F)c1cc(Cl)ccc1O | 6.3 (≈ 2.42 µg/mL) | 8.1
O=C(Nc1cc(C(F)(F)F)ccc1C(F)(F)F)c1cc(Cl)ccc1O | 3.1 (≈ 1.19 µg/mL) | 6.6
O=C(Nc1ccccc1S(=O)(=O)c1ccccc1)c1cc(Cl)ccc1O | > 50 | > 60
N#Cc1ccc(NC(=O)c2cc(Cl)ccc2O)cc1 | 13 (≈ 3.54 µg/mL) | 11
O=C(Nc1cccc(C(F)(F)F)c1)c1cc(Cl)ccc1O | 3.1 (≈ 0.979 µg/mL) | 5.9

Source: ChEMBL document CHEMBL2311418, “Structure-activity relationships of antitubercular salicylanilides consistent with disruption of the proton gradient via proton shuttling” (Bioorg Med Chem, 2013)
